Format in all cases: biochemical
Assay [1] has as its target T1, CYP3A4 (Homo sapiens, UniProt P08684). Put plainly: Determination of compound Kiapp against recombinant CYP3A4 enzyme (BFC fluorescent substrate). The essentials:
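Recombinant CYP3A4 (5.5 or 8 nM, with or without b5 depending on source) pre-incubated with inhibitor ≥30 min at room temperature in 100 mM sodium phosphate pH 7.0, 5 mM TCEP, 2% DMF. Reaction started with 200 uM NADPH and 5 uM BFC; initial fluorescence rates over 5 min fitted to Morrison tight-binding (non-partial) or Szedlacsek (partial) equations for Kiapp.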

Assay [2] addresses T1, CYP3A4. Kind of assay: Determination of IC50 against CYP3A4 by measurement of inhibition of midazolam metabolism (human liver microsomes, 1-hydroxymidazolam by LC-MS/MS). Also noted: 0.1 mg/mL human liver microsomes. As to conditions: 2 μM midazolam, 0.1 mg/mL human liver microsomes. A digest of the protocol: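 Human liver microsomes (0.1 mg/mL) incubated 8 min with 2 μM midazolam and 1 mM NADPH in 100 mM potassium phosphate, pH 7.4. 1-Hydroxymidazolam quantified by LC-MS/MS (MRM) as peak area ratio to internal standard against a metabolite standard curve.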
(Microsomes from liver hold many membrane-bound enzymes, among them those of drug oxidation.)

Assay [3] addresses T1, CYP3A4. Put plainly: Determination of IC50 against CYP3A4 by measurement of inhibition of testosterone metabolism (human liver microsomes, 6-β-OH-testosterone by LC-MS/MS). Also noted: 0.1 mg/mL human liver microsomes. Conditions: read-out: IC50 (Testo.). A digest of the protocol: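 Human liver microsomes (0.1 mg/mL) incubated with 25 μM testosterone and 1 mM NADPH in 100 mM potassium phosphate, pH 7.4, for eight minutes. 6-β-OH-testosterone measured by LC-MS/MS in MRM mode against an internal standard and quantified from a metabolite standard curve.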

Setting [4] is: Baculo. enzyme preparation, read-out: Kiapp (BFC, Baculo.).
The mark [5] stands for this setting: Super. enzyme preparation, read-out: Kiapp (BFC, Super.).

SMILES strings stand for the structures. Like-named read-outs stand apart in the source and are kept apart here.

T1 sequence (P08684 whole entry): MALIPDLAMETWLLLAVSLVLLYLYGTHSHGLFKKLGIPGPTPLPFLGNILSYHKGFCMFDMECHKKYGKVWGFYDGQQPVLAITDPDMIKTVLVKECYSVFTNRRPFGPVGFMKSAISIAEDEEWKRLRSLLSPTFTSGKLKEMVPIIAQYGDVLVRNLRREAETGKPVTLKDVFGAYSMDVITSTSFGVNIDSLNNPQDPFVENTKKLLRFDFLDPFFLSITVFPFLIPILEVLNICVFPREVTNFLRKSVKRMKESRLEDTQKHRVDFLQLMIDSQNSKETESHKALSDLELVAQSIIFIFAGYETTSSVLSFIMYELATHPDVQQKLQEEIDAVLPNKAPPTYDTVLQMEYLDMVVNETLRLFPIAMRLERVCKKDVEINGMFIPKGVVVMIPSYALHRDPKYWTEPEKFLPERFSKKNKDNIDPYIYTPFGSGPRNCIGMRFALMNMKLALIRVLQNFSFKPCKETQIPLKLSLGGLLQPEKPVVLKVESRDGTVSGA

On to `COc1cncc(NS(=O)(=O)c2ccccc2C(=O)NC(C)C2CC2)c1` (stereo not shown) [Example 311, N-(1-cyclopropylethyl)-2-{[(5-methoxypyridin-3-yl)amino]sulfonyl}benzamide], for which the values for the Ki at CYP3A4 [1] (setting [4]) and at CYP3A4 [1] (setting [5]) were 209 nM and 76.2 nM, respectively. The values for the IC50 on CYP3A4 [2] and at CYP3A4 [3] were 34 nM and 73 nM, respectively.
As to `COc1cncc(NS(=O)(=O)c2ccccc2C(=O)NCc2ccc(F)c(C(F)(F)F)c2)c1` [Example 312, N-[4-fluoro-3-(trifluoromethyl)benzyl]-2-{[(5-methoxypyridin-3-yl)amino]sulfonyl}benzamide], the Ki at CYP3A4 [1] (setting [4]) came out at 8.6 nM; at CYP3A4 [1] (setting [5]), 3.5 nM. The concentration for half-maximal inhibition (IC50) – broadly, the midpoint of a concentration-inhibition curve – turned out to be 13 nM on CYP3A4 [2] and 12 nM on CYP3A4 [3].
The like results for `COc1cncc(NS(=O)(=O)c2ccccc2C(=O)NC(C)C(C)C)c1` (stereo not shown) [Example 313, N-(1,2-dimethylpropyl)-2-{[(5-methoxypyridin-3-yl)amino]sulfonyl}benzamide] were, in that order, 197 nM, 48.7 nM, 19 nM and 55 nM.
Regarding `COc1cncc(NS(=O)(=O)c2ccccc2C(=O)NCc2ccc(Cl)c(Cl)c2)c1` [Example 314, N-(3,4-dichlorobenzyl)-2-{[(5-methoxypyridin-3-yl)amino]sulfonyl}benzamide], the Ki at CYP3A4 [1] (setting [4]) turned out to be 18.7 nM; at CYP3A4 [1] (setting [5]), 4.5 nM. Moreover, the IC50 on CYP3A4 [2] and at CYP3A4 [3] was 17 nM throughout.
`Cc1cncc(NS(=O)(=O)c2ccccc2C(=O)NC(C)C2CC2)c1` (stereo not shown) [Example 315, N-(1-cyclopropylethyl)-2-{[(5-methylpyridin-3-yl)amino]sulfonyl}benzamide]: the Ki at CYP3A4 [1] (setting [4]) amounted to 250 nM; at CYP3A4 [1] (setting [5]) it was 42.2 nM. Further, the results for the 50% inhibitory concentration (IC50) on CYP3A4 [2] and on CYP3A4 [3] were 22 nM and 43 nM, respectively.
Take `Cc1cncc(NS(=O)(=O)c2ccccc2C(=O)NCc2ccc(F)c(C(F)(F)F)c2)c1` [Example 316, N-[4-fluoro-3-(trifluoromethyl)benzyl]-2-{[(5-methylpyridin-3-yl)amino]sulfonyl}benzamide]: the Ki at CYP3A4 [1] (setting [4]) came out at 8.4 nM; on CYP3A4 [1] (setting [5]), 1.2 nM. In addition, the IC50 on CYP3A4 [2] amounted to 17 nM; on CYP3A4 [3], 27 nM.
The matching figures for `Cc1cncc(NS(=O)(=O)c2ccccc2C(=O)NC(C)C(C)C)c1` (stereo not shown) [Example 317, N-(1,2-dimethylpropyl)2{[(5-methylpyridin-3-yl)amino]sulfonyl}benzamide]: 144 nM, 51.6 nM, 15 nM and 19 nM.
The matching figures for `Cc1cncc(NS(=O)(=O)c2ccccc2C(=O)NCc2ccc(Cl)c(Cl)c2)c1` [Example 318, N-(3,4-dichlorobenzyl)-2-{[(5-methylpyridin-3-yl)amino]sulfonyl}benzamide]: 9.9 nM, 1.9 nM, 145 nM and 165 nM.
Turning to `Cc1cncc(NS(=O)(=O)c2ccccc2C(=O)NCCc2ccccc2C)c1` [Example 319, N-[2-(2-methylphenyl)ethyl]-2-{[(5-methylpyridin-3-yl)amino]sulfonyl}benzamide], the Ki was determined as 4.3 nM on CYP3A4 [1] (setting [4]) and 7.2 nM at CYP3A4 [1] (setting [5]). Further, the concentration for half-maximal inhibition (IC50) worked out at 10 nM at CYP3A4 [2] and 11 nM on CYP3A4 [3].
Turning to `Cc1cncc(NS(=O)(=O)c2ccccc2C(=O)NCc2ccc(F)c(F)c2)c1` [Example 320, N-(3,4-difluorobenzyl)-2-{[(5-methylpyridin-3-yl)amino]sulfonyl}benzamide], the Ki was 10.1 nM at CYP3A4 [1] (setting [4]) and 28.4 nM at CYP3A4 [1] (setting [5]). Also, the concentration for half-maximal inhibition (IC50) at CYP3A4 [2] was 6 nM; on CYP3A4 [3], 8 nM.
With `Cc1cncc(NS(=O)(=O)c2ccccc2C(=O)N2CCCC2)c1` [Example 321, N-(5-methylpyridin-3-yl)-2-(pyrrolidin-1-ylcarbonyl)benzenesulfonamide], the Ki at CYP3A4 [1] (setting [4]) is 195 nM; at CYP3A4 [1] (setting [5]) it was 460 nM. Moreover, the figures for the half-inhibitory concentration (IC50) on CYP3A4 [2] and on CYP3A4 [3] were 94 nM and 129 nM, respectively.
With `COc1cncc(N(C)S(=O)(=O)c2ccccc2C(=O)NCc2cccc(F)c2)c1` [Example 322, N-(3-fluorobenzyl)-2-{[(5-methoxypyridin-3-yl)(methyl)amino]sulfonyl} benzamide], the Ki at CYP3A4 [1] (setting [4]) came out at 54.4 nM; at CYP3A4 [1] (setting [5]), 19.8 nM. Besides, the half-inhibitory concentration (IC50) on CYP3A4 [2] turned out to be 11 nM; at CYP3A4 [3], 15 nM.
In the case of `CC(C)CCNC(=O)c1ccccc1S(=O)(=O)N(C)c1cccnc1` [Example 323, N-(3-methylbutyl)-2-{[methyl(pyridin-3-yl)amino]sulfonyl}benzamide], the Ki was 210 nM on CYP3A4 [1] (setting [4]) and 221 nM on CYP3A4 [1] (setting [5]). Besides, the values for the half-inhibitory concentration (IC50) on CYP3A4 [2] and on CYP3A4 [3] were 28 nM and 59 nM, respectively.
In the case of `CN(CC1CCCC1)C(=O)c1ccccc1S(=O)(=O)Nc1cccnc1` [Example 324, N-(cyclopentylmethyl)-N-methyl-2-[(pyridin-3-ylamino)sulfonyl]benzamide], the Ki turned out to be 85.1 nM on CYP3A4 [1] (setting [4]) and 21.7 nM on CYP3A4 [1] (setting [5]). Besides, the results for the IC50 on CYP3A4 [2] and at CYP3A4 [3] were 11 nM and 20 nM, respectively.
The matching figures for `Cc1ccccc1CCNC(=O)c1ccccc1S(=O)(=O)N(C)c1cccnc1` [Example 325, N-[2-(2-methylphenyl)ethyl]-2-{[methyl(pyridin-3-yl)amino]sulfonyl}benzamide]: 35 nM, 8.6 nM, 119 nM and 84 nM.
Turning to `CN(c1cccnc1)S(=O)(=O)c1ccccc1C(=O)N1CCOCC1` [Example 326, N-methyl-2-(morpholin-4-ylcarbonyl)-N-pyridin-3-ylbenzenesulfonamide], the Ki at CYP3A4 [1] (setting [4]) came out at 884 nM; at CYP3A4 [1] (setting [5]), 273 nM. For the same compound, the 50% inhibitory concentration (IC50) worked out at 132 nM at CYP3A4 [2] and 164 nM on CYP3A4 [3].
With `CN(c1cccnc1)S(=O)(=O)c1ccccc1C(=O)N1CCCC1` [Example 328, N-methyl-N-pyridin-3-yl-2-(pyrrolidin-1-ylcarbonyl)benzenesulfonamide], the Ki on CYP3A4 [1] (setting [4]) was over 1000 nM; on CYP3A4 [1] (setting [5]) it was 484 nM. In addition, the IC50 on CYP3A4 [2] and at CYP3A4 [3] was over 750 nM in each case.
For the compound `CCCN(CC1CC1)C(=O)c1ccccc1S(=O)(=O)N(C)c1cncc(OC)c1` [Example 329, N-(cyclopropylmethyl)-2-{[(5-methoxypyridin-3-yl)(methyl)amino]sulfonyl}-N-propylbenzamide], the Ki at CYP3A4 [1] (setting [4]) came to 34 nM; on CYP3A4 [1] (setting [5]), 17.7 nM. For the same compound, the IC50 at CYP3A4 [2] is 32 nM; on CYP3A4 [3], 58 nM.
Regarding `Cc1cncc(NS(=O)(=O)c2ccccc2C(=O)NCC(C)(C)C)c1` [Example 330, N-(2,2-dimethylpropyl)-2-{[(5-methylpyridin-3-yl)amino]sulfonyl}benzamide], the Ki was found to be 204 nM on CYP3A4 [1] (setting [4]) and 22.7 nM on CYP3A4 [1] (setting [5]). Moreover, the half-maximal inhibitory concentration (IC50) came out at 60 nM on CYP3A4 [2] and 55 nM on CYP3A4 [3].
The like results for `CCCN(CC1CC1)C(=O)c1ccccc1S(=O)(=O)Nc1cncc(C)c1` [Example 331, N-(cyclopropylmethyl)-2-{[(5-methylpyridin-3-yl)amino]sulfonyl}-N-propylbenzamide] were, in that order, 75.2 nM, 10.9 nM, 12 nM and 14 nM.
As for `CN(c1cccnc1)S(=O)(=O)c1ccccc1C(=O)NCC1CCCC1` [Example 332, N-(cyclopentylmethyl)-2-{[methyl(pyridin-3-yl)amino]sulfonyl}benzamide], the Ki at CYP3A4 [1] (setting [4]) worked out at 334 nM; at CYP3A4 [1] (setting [5]) it was 61.2 nM. Also, the half-maximal inhibitory concentration (IC50) at CYP3A4 [2] and on CYP3A4 [3] was 13 nM each time.
Take `Cc1cncc(NS(=O)(=O)c2ccccc2C(=O)N2CC(C)CC(C)C2)c1` (stereo not shown) [Example 333, 2-[(3,5-dimethylpiperidin-1-yl)carbonyl]-N-(5-methylpyridin-3-yl)benzenesulfonamide]: the Ki was found to be 69.2 nM on CYP3A4 [1] (setting [4]) and 22.9 nM at CYP3A4 [1] (setting [5]). The IC50 worked out at 24 nM at CYP3A4 [2] and 13 nM at CYP3A4 [3].
Consider `Cc1cncc(NS(=O)(=O)c2ccccc2C(=O)NCC2CCCC2)c1` [Example 334, N-(cyclopentylmethyl)-2-{[(5-methylpyridin-3-yl)amino]sulfonyl}benzamide], for which the Ki came out at 82.6 nM on CYP3A4 [1] (setting [4]) and 9.1 nM on CYP3A4 [1] (setting [5]). Also, the half-inhibitory concentration (IC50) on CYP3A4 [2] was 12 nM; at CYP3A4 [3], 17 nM.
In the case of `Cc1cncc(NS(=O)(=O)c2ccccc2C(=O)N(C)Cc2ccccc2)c1` [Example 335, N-benzyl-N-methyl-2-{[(5-methylpyridin-3-yl)amino]sulfonyl}benzamide], the values for the Ki on CYP3A4 [1] (setting [4]) and on CYP3A4 [1] (setting [5]) were 97.7 nM and 16.8 nM, respectively. Besides, the IC50 worked out at 20 nM at CYP3A4 [2] and 28 nM on CYP3A4 [3].
Consider `COc1ccc(CNC(=O)c2ccccc2S(=O)(=O)N(C)c2cccnc2)cc1` [Example 336, N-(4-methoxybenzyl)-2-{[methyl(pyridin-3-yl)amino]sulfonyl}benzamide], for which the Ki at CYP3A4 [1] (setting [4]) came out at 319 nM; on CYP3A4 [1] (setting [5]), 68.2 nM. The IC50 was found to be 37 nM at CYP3A4 [2] and 19 nM on CYP3A4 [3].

The record behind these values is patent US7868026B2, “Therapeutic compounds” (Pfizer Inc., priority 2005, dated 2011).
